Read-outs that look alike come from different tables or passages of the source.
Columns and labels:
wild type BbFpn = wild type BbFpn (Bdellovibrio bacteriovorus, UniProt Q6MLJ0); test: biochemical; type: binding, Bdellovibrio bacteriovorous
human Fpn = molecular target: T1, human Fpn (Homo sapiens, UniProt Q9NP59); test: 55Fe efflux from HEK293T cells with tet-inducible human Fpn; type: cell-based
T1 construct: expressed in transfected cells; host or cells: Xenopus laevis oocytes injected with Fpn RNA
T1 sequence (Q9NP59 1-571): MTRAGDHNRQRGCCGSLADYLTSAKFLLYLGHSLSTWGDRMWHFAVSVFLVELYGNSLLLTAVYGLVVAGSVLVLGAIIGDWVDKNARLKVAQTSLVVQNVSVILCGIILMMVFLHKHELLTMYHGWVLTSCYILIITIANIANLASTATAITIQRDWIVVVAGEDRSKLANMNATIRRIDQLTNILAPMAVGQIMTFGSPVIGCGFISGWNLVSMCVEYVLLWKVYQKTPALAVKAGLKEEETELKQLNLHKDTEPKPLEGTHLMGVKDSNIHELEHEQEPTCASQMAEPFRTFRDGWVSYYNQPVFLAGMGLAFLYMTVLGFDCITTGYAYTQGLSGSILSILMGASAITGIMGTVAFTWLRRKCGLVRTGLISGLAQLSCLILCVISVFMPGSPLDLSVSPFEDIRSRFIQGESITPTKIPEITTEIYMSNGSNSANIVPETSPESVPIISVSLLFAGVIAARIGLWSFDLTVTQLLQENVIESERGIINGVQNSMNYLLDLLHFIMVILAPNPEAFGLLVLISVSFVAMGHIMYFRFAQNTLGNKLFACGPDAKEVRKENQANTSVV
Protocol: We measured ^55Fe efflux from HEK293 cells (E. Nemeth, UCLA) that were stably transfected with a tet-inducible human Fpn construct in pcDNA5/FRT/TO vector (Invitrogen) as described. Fpn expression was induced by adding 0.5 µg/ml doxycycline; data represent % efflux in induced minus uninduced cells. Fpn expression in mammalian cells was confirmed by visualizing GFP fluorescence, which was unaffected by removal of extracellular calcium.

BbFpn Q84E = BbFpn Q84E (Bdellovibrio bacteriovorus, UniProt Q6MLJ0, Q84E); test: Isothermal titration calorimetry, Q84E BbFpn; type: binding, Bdellovibrio bacteriovorous
[1] = Supplementary Figs. 5 and 9, one experiment

wild type BbFpn, sequence (Q6MLJ0 whole entry): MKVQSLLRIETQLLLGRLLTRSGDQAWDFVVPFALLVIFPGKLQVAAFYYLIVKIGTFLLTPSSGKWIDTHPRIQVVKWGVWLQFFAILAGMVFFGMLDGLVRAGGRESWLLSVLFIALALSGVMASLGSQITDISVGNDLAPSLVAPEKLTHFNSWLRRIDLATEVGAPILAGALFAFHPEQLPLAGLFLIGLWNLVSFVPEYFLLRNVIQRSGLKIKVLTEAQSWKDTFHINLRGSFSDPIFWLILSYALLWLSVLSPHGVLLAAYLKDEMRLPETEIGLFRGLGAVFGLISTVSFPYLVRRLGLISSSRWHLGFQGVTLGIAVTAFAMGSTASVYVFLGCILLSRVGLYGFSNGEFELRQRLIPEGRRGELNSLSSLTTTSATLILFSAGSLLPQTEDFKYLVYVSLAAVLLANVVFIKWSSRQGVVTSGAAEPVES
BbFpn Q84E, sequence (Q6MLJ0 whole entry Q84E): as the sequence (Q6MLJ0 whole entry) above, with Q84E counted along it

SMILES: [Ca+2] [Ca^2+, calcium]
- Kd (wild type BbFpn; 20 °C, 20 mM Tris pH 8, 50 mM NaCl, 0.004% LMNG, read-out: Kd (ITC)): 1.2e-05 ± 4e-07 M
- -TΔS, ITC (wild type BbFpn; [1]): -15.3 kcal/mol
- N (sites), ITC (wild type BbFpn; [1]): 0.691 ± 8.5e-3
- ΔG, ITC (wild type BbFpn; [1]): -6.61 kcal/mol
- ΔH, ITC (wild type BbFpn; [1]): 8.68 ± 0.155 kcal/mol
- Kd (wild type BbFpn; Supplementary Figs. 5 and 9, one experiment, read-out: KD (M), ITC): 1.18e-05 M
- Effect of extracellular Ca2+ on 55Fe efflux (human Fpn; HEK293T cells, 1 mM Ca2+, over 6 h (P = 0.002) and 24 h (P < 0.001), not at earlier time points): significantly activated
- Effect of removal of extracellular Ca2+ on Fpn-mediated 55Fe efflux (human Fpn; HEK cells, 0 Ca2+ + 1 mM EGTA vs 1 mM Ca2+): abolished
- Binding to Q84E BbFpn by ITC (in words) (BbFpn Q84E): no Ca^2+ or Sr^2+ binding
